Measurements taken from the supplement of paper PMC10307832.

Assays:
Experiment in all cases: relative viability (nuclei count vs DMSO), 5 days (fraction); higher = more cells survive
[1] = compound: COC1=C(C=C(C=C1)C2=CC3=NC=CN3C(=N2)NC4=C(C=CC=N4)C(=O)N)OC [BAY61-3606] + O=C(CCCCCCC(=O)Nc1ccccc1)NO [Vorinostat] (partner 1 µM)
How it was run: (§1)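 Lung cancer cell lines, seeded in 1536-well plates, were treated the following day by pin tool with a single drug or with five library-drug doses (not always all listed) in √10 steps on top of a fixed anchor-drug dose. Cells were fixed and nuclei stained in one step after 5 days, and nuclei were counted. Relative viability is the nuclei count for treated wells divided by that for vehicle wells, reported as medians of duplicate plates.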

[2] = compound: COc1cccc2c1C(=O)c1c(O)c3c(c(O)c1C2=O)C[C@@](O)(C(=O)CO)C[C@@H]3O[C@H]1C[C@H](N)[C@H](O)[C@H](C)O1 [Doxorubicin] + CCNC(=O)c1noc(-c2cc(C(C)C)c(O)cc2O)c1-c1ccc(CN2CCOCC2)cc1 [Luminespib] (partner 0.01 µM)
How it was run: as §1

[3] = compound: COc1cccc2c1C(=O)c1c(O)c3c(c(O)c1C2=O)C[C@@](O)(C(=O)CO)C[C@@H]3O[C@H]1C[C@H](N)[C@H](O)[C@H](C)O1 [Doxorubicin] + O=C(c1cc(Cc2n[nH]c(=O)c3ccccc23)ccc1F)N1CCN(C(=O)C2CC2)CC1 [Olaparib] (partner 8 µM)
How it was run: as §1

[4] = compound: COc1cccc2c1C(=O)c1c(O)c3c(c(O)c1C2=O)C[C@@](O)(C(=O)CO)C[C@@H]3O[C@H]1C[C@H](N)[C@H](O)[C@H](C)O1 [Doxorubicin] + Cc1cc(Nc2cc(N3CCN(C)CC3)nc(Sc3ccc(NC(=O)C4CC4)cc3)n2)n[nH]1 [Tozasertib] (partner 0.1 µM)
How it was run: as §1

Cell Line | relative viability ([1]; first compound 0.02 µM) | relative viability ([1]; first compound 0.06325 µM) | relative viability ([1]; first compound 0.2 µM) | relative viability ([1]; first compound 0.6325 µM) | relative viability ([1]; first compound 2 µM) | relative viability ([2]; first compound 0.001 µM) | relative viability ([2]; first compound 0.003162 µM) | relative viability ([2]; first compound 0.01 µM) | relative viability ([2]; first compound 0.03162 µM) | relative viability ([2]; first compound 0.1 µM) | relative viability ([3]; first compound 0.001 µM) | relative viability ([3]; first compound 0.003162 µM) | relative viability ([3]; first compound 0.01 µM) | relative viability ([3]; first compound 0.03162 µM) | relative viability ([3]; first compound 0.1 µM) | relative viability ([4]; first compound 0.001 µM) | relative viability ([4]; first compound 0.003162 µM) | relative viability ([4]; first compound 0.01 µM) | relative viability ([4]; first compound 0.03162 µM) | relative viability ([4]; first compound 0.1 µM)
NCI-H2126 | 0.799 | 0.761 | 0.733 | 0.747 | 0.619 | 0.643 | 0.88 | 0.817 | 0.394 | 0.286 | 0.908 | 0.962 | 0.916 | 0.941 | 0.907 | 0.902 | 0.752 | 0.774 | 0.229 | 0.251
NCI-H1915 | 0.515 | 0.528 | 0.478 | 0.511 | 0.483 | 0.802 | 0.733 | 0.702 | 0.715 | 0.779 | 0.256 | 0.258 | 0.249 | 0.311 | 0.27 | 0.481 | 0.439 | 0.452 | 0.41 | 0.437
ChaGo-K-1 | 0.72 | 0.767 | 0.715 | 0.714 | 0.793 | 0.614 | 0.592 | 0.651 | 0.52 | 0.54 | 0.437 | 0.408 | 0.352 | 0.486 | 0.442 | 0.229 | 0.199 | 0.222 | 0.208 | 0.226
PC-14 | 0.808 | 0.799 | 0.845 | 0.87 | 0.667 | 0.173 | 0.181 | 0.122 | 0.14 | 0.116 | 0.239 | 0.257 | 0.203 | 0.0737 | 0.0408 | 0.598 | 0.573 | 0.599 | 0.59 | 0.487
COR-L23 | 0.564 | 0.5 | 0.511 | 0.491 | 0.323 | 0.678 | 0.637 | 0.567 | 0.163 | 0.147 | 0.361 | 0.38 | 0.29 | 0.147 | 0.131 | 0.227 | 0.186 | 0.201 | 0.123 | 0.122
COR-L 105 | 0.938 | 0.947 | 0.734 | 0.791 | 0.746 | 0.678 | 0.754 | 0.691 | 0.595 | 0.363 | 0.748 | 0.698 | 0.668 | 0.497 | 0.468 | 0.424 | 0.368 | 0.443 | 0.334 | 0.344
LK-2 | 0.264 | 0.297 | 0.301 | 0.327 | 0.306 | 0.171 | 0.215 | 0.235 | 0.162 | 0.16 | 0.713 | 0.672 | 0.585 | 0.604 | 0.653 | 0.153 | 0.156 | 0.134 | 0.177 | 0.19
201T | 1.02 | 0.962 | 1.05 | 1.09 | 1.06 | 1.03 | 1.08 | 1.04 | 1.01 | 1.11 | 0.849 | 0.825 | 0.837 | 0.856 | 0.831 | 0.924 | 0.955 | 0.949 | 0.927 | 0.924
NCI-H727 | 1.03 | 1.12 | 1.07 | 1.17 | 1.24 | 0.286 | 0.348 | 0.225 | 0.336 | 0.308 | 0.821 | 0.811 |  | 0.768 | 0.753 | 0.697 | 0.513 | 0.697 | 0.636 | 0.661
H3255 | 0.817 | 0.8 | 0.749 | 0.75 | 0.86 | 0.982 | 0.84 | 0.841 | 0.75 | 0.829 | 0.541 | 0.553 | 0.541 | 0.48 | 0.424 | 0.59 | 0.759 | 0.573 | 0.604 | 0.539
NCI-H838 | 0.743 | 0.74 | 0.7 | 0.652 | 0.553 | 0.273 | 0.35 | 0.279 | 0.255 | 0.172 | 0.795 | 0.759 | 0.702 | 0.337 | 0.279 | 0.281 | 0.306 | 0.261 | 0.274 | 0.226
NCI-H2085 | 0.885 | 0.766 | 0.796 | 0.839 | 0.811 | 0.471 | 0.462 | 0.46 | 0.47 | 0.478 | 0.788 | 0.825 | 0.828 | 0.92 | 0.775 | 0.815 | 0.829 | 0.919 | 0.796 | 0.829
NCI-H2405 | 1.17 | 1.02 | 1.15 | 0.968 | 0.824 | 0.572 | 0.701 | 0.778 | 0.599 | 0.6 | 0.864 | 0.847 | 0.788 | 0.465 | 0.421 | 0.847 | 0.759 | 0.74 | 0.693 | 0.546
NCI-H2170 | 0.835 | 0.752 | 0.842 | 0.83 | 0.739 | 0.484 | 0.89 | 0.772 | 0.5 | 0.758 | 0.617 | 0.735 | 0.633 | 0.602 | 0.704 | 0.741 | 0.711 | 0.651 | 0.581 | 0.701
NCI-H1944 | 0.65 | 0.538 | 0.515 | 0.559 | 0.487 | 0.725 | 0.733 | 0.751 | 0.674 | 0.651 | 0.403 | 0.37 | 0.384 | 0.378 | 0.423 | 0.24 | 0.267 | 0.231 | 0.235 | 0.239
